From US8258123B2, “C-19 steroids for cosmetic and further uses” (ErlaCos GmbH, priority 2007, dated 2012)
“Also recorded” adds a separate entry of the source.

Legend:
[1] = system: 5α-reductase; assay: 5α-reductase inhibition; assay type: biochemical
Excerpt: According to the present invention, the use may correspondingly be determined by selecting the C-19 steroid compound having the aforementioned effects or properties (iii) to (vi) alone or in combination. These effects or properties (iii) to (vi) can be measured by correspondingly known methods. For example, 5α-reductase activity can be measured by a method described by Mitamura et al., Analytical Sciences 21, 1241-1244 (2005). The use according to the present invention may be further determined by a suitable administrated amount of the compound, and by an appropriate application condition, such as type of user/patient, or type of target site or organ enabling the aforementioned effects or properties (iii) to (vi) alone or in combination.

[2] = system: hair follicles; assay: Topical treatment of body skin areas, hair growth; assay type: in vivo
Excerpt: The situation in the body regions other than the scalp however is different. Sometimes hair growing excessively on other parts of the body is a nuisance. They are conventionally removed by depilation or epilation. Hot wax epilation restores the growth of hair in many dorming hair follicles (telogen hair) thereby increasing the frequency and painfulness of hot wax epilation. Pubic and axillary hair is sparse or absent in CAIS. Corresponding cell cultures contain as androgen predominantly testosterone and only traces of DHT. Growth of unwanted hair in the corresponding body regions cannot be prevented by blocking of 5α-reductase. According to the present invention, this is possible by blocking the androgen receptor against DHT. In almost all hair follicles (with the exception of scalp, pubic and axillary hair) specific cells of the dermal papilla are driven by DHT to promote hair growth.

[3] = system: apocrine sweat glands in the axilla; assay: Topical application to the axilla, body odour; assay type: in vivo
Excerpt: (§1) Not only in theory but also in practice the compounds of the present invention and in particular 4-OHT and its related analogous compounds are the ideal anabolic substances. […] This can be deduced from three different topical applications to the skin.
The majority of glands relevant for body odor are situated in the subcutaneous tissue. It is therefore difficult to apply effective substances directly. To this end a substance is preferably included facilitating the penetration into the skin.

[4] = target: T1, aromatase (Homo sapiens, UniProt P11511); assay: Aromatization by aromatase
T1 sequence (P11511 1-503): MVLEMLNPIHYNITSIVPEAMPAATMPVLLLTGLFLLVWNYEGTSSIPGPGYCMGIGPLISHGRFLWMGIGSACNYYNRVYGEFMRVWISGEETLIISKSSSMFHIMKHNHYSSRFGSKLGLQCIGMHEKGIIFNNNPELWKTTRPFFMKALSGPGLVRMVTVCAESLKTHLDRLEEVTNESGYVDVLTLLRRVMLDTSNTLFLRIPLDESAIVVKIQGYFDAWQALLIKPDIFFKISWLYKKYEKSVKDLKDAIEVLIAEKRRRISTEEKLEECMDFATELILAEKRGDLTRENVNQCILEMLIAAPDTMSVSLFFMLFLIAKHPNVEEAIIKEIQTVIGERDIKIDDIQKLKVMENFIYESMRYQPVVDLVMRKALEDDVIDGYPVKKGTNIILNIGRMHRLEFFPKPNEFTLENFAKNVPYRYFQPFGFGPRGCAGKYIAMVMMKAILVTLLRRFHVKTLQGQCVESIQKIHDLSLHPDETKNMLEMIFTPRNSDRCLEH

[5] = system: sebaceous glands; assay: Topical application to the face and other acne-prone skin areas; assay type: in vivo
Excerpt: as §1

[6] = system: skin over the predilection areas of cellulite; assay: Topical treatment of the skin over the predilection areas of cellulite; assay type: in vivo
Excerpt: The border between the two layers is made up of collagen fibres. Strengthening this border by increasing its collagen content by stimulating the fibroblasts to produce more collagen leads to a marked improvement of the appearance of cellulite.

[7] = system: 5α-reductase; assay: Reduction by 5α-reductase
[8] = system: androgen receptor (AR); assay: Binding affinity to the androgen receptor against DHT as reference compound
Procedure: The compounds used according to the present invention preferably have a binding affinity to the androgen receptor (AR) higher than DHT; more preferably the binding affinity is high by having affinity specific to AR in a range of IC50≧500 nM, preferably IC50≧100 nM and more preferably IC50≧50 nM, wherein IC50 is defined as the concentration of the compound required to reduce specific binding of a reference compound, 5α-dihydrotestosterone (DHT), by 50%. The IC50-values can be determined by known methods using radioactively labelled DHT as reference compound, for example by a standard dextran-coated charcoal adsorption method as described by Raynaud et al., J. Steroid Biochem. 6, 615-622 (1975), using 1 nM reference concentrations of radiolabeled [^3H]-DHT, or by similar IC50 determination methods described in the literature. Because the concentration of AR in the target cell is very low, typically in the nanomolar range approximately, differences in binding constants to the order contemplated in the present invention are significant.

[9] = system: striae; assay: Topical treatment of striae; assay type: in vivo; conditions: suitable formulation containing 4-OHT
Excerpt: Striae have also been treated according to the invention with a suitable formulation containing 4-OHT. […] Whereas striae rubrae are more disturbing on a fair skin striae albae are a considerable problem for dark skin.

[10] = loaded to solid lipid nanoparticles; cited from earlier work
[11] = system: forehead skin; conditions: applied to the forehead skin of patients with acne, 1% solution; cited from earlier work

| Structure (SMILES) | inhibition of 5α-reductase [1] | type of hair produced by the follicles ([2]; after six months) | growth of body hairs ([2]; body regions other than scalp) | effect on body odor of the combination with a penetration enhancer ([3]; combination with dimethyl isosorbide (Arlasolve DMI)) | androgen dependent production of volatile fatty acids responsible for body odour ([3]; topical, axilla) | aromatization [4] | size and capability of sebaceous glands [5] | adipose tissue / adipocytes ([6]; topical) | topical formulation compared with 4-OHA ([6]; topical formulation, collagen content of the skin) | solidification of the skin ([6]; topical preparation, within four weeks) | concentration of collagen fibres ([6]; topical, skin areas over the buttocks) | androgenic effect after application to the skin ([6]; topical, hair growth or pimples) | 5α-reduction [7] | binding affinity to the AR compared with DHT [8] | striae rubrae and striae albae [9] | thickness of the skin [9] | increase in CPA absorption by the skin [10] | sebum excretion rate [11] |
| --- | --- | --- | --- | --- | --- | --- | --- | --- | --- | --- | --- | --- | --- | --- | --- | --- | --- | --- |
| C[C@]12CC[C@H]3[C@@H](CCC4=C(O)C(=O)CC[C@@]43C)[C@@H]1CC[C@@H]2O [4-OHT, 4,17β-dihydroxyandrost-4-en-3-one] | able to inhibit this enzyme (probably both isoforms) | most of the follicles are producing solely vellous hair | grow slower and less dense and in addition thinner and blonder | Optimal results | immediately prevents the androgen dependent production of volatile fatty acids | escapes aromatization or 5α-reduction | reduces size and capability of sebaceous glands | marked diminution and shrinkage of the adipocytes; also recorded: shrinkage of adipose tissue | superior than 4-OHA | considerable solidification of the skin | anabolically increases the concentration of collagen fibres | no androgenic effect whatsoever could be observed | escapes aromatization or 5α-reduction | higher affinity to the AR than DHT | makes them disappear | increasing thickness of the skin |  |  |
| CC(=O)O[C@]1(C(C)=O)CC[C@H]2[C@@H]3C=C(Cl)C4=CC(=O)[C@@H]5C[C@@H]5[C@]4(C)[C@H]3CC[C@@]21C [Cyproterone acetate, cyproterone acetate] |  |  |  |  |  |  |  |  |  |  |  |  |  |  |  |  | 2-3 fold | not able to reduce the sebum excretion rate |
